The NIST ThermoML archive (doi:10.1021/je900719z)

Details: Liquid, Ebulliometric method (Recirculating still)

CCO [ethanol]
Details	vapor or sublimation pressure [kPa]
325.48 K	33
326.03 K	33.9
326.48 K	34.6
326.93 K	35.3
327.33 K	36
327.8 K	36.8
328.26 K	37.6
328.73 K	38.4
329.18 K	39.2
329.62 K	40
330.11 K	40.9
330.62 K	41.9
331.16 K	42.9
331.66 K	43.9
332.17 K	44.9
332.68 K	45.9
333.15 K	46.9
333.86 K	48.4
334.55 K	49.9
335.17 K	51.3
335.84 K	52.8
336.28 K	53.85
336.81 K	55.13
337.31 K	56.32
337.86 K	57.69
338.32 K	58.87
338.97 K	60.49
339.47 K	61.82
339.99 K	63.19
340.47 K	64.47
340.82 K	65.48
341.18 K	66.45
341.68 K	67.91
342.01 K	68.92
342.53 K	70.35
343.05 K	71.88
343.54 K	73.35
343.97 K	74.68
344.41 K	76.08
344.93 K	77.68
345.3 K	78.95
345.77 K	80.44
346.17 K	81.82
346.75 K	83.74
347.17 K	85.17
347.51 K	86.38
347.91 K	87.78
348.29 K	89.17
348.62 K	90.34
349.03 K	91.82
349.36 K	93.08
349.67 K	94.24
350.05 K	95.68
350.44 K	97.16
350.82 K	98.63
351.17 K	100.02
351.51 K	101.38
351.76 K	102.37
352.07 K	103.64
352.45 K	105.17
352.79 K	106.59
353.15 K	108.08
353.5 K	109.58
353.79 K	110.8
354.14 K	112.36
354.46 K	113.75
354.82 K	115.35
355.15 K	116.81
355.51 K	118.44
355.85 K	120.01
356.22 K	121.68
356.54 K	123.23
356.81 K	124.46
357.16 K	126.16
357.48 K	127.68
357.89 K	129.67

O [water]
Details	vapor or sublimation pressure [kPa]
333.02 K	19.55
333.56 K	20.05
334.08 K	20.55
334.59 K	21.05
335.15 K	21.6
335.64 K	22.1
336.11 K	22.6
336.66 K	23.15
337.12 K	23.65
337.65 K	24.22
338.13 K	24.75
338.6 K	25.3
339.12 K	25.9
339.62 K	26.45
340.15 K	27.1
340.63 K	27.7
341.25 K	28.45
341.67 K	29
342.13 K	29.6
342.71 K	30.33
343.17 K	30.95
343.73 K	31.72
344.21 K	32.4
344.73 K	33.15
345.22 K	33.85
345.66 K	34.5
346.11 K	35.15
346.61 K	35.9
347.15 K	36.75
347.62 K	37.5
348.15 K	38.32
348.22 K	38.47
348.65 K	39.18
349.17 K	40.04
349.68 K	40.88
350.22 K	41.85
350.66 K	42.59
351.18 K	43.5
351.67 K	44.39
352.13 K	45.28
352.64 K	46.19
353.13 K	47.14
353.65 K	48.15
354.12 K	49.06
354.63 K	50.07
355.13 K	51.1
355.71 K	52.36
356.14 K	53.24
356.65 K	54.34
357.13 K	55.42
357.69 K	56.64
358.16 K	57.69
358.65 K	58.78
359.19 K	60.08
359.62 K	61.09
360.26 K	62.64
360.74 K	63.82
361.2 K	64.95
361.61 K	65.98
362.13 K	67.33
362.71 K	68.85
363.17 K	70.05
363.72 K	71.54
364.28 K	73.07
364.75 K	74.38
365.34 K	76.08
365.84 K	77.53
366.34 K	78.95
366.86 K	80.58
367.35 K	82.03
367.83 K	83.48
368.33 K	85.04
368.8 K	86.54
369.27 K	88.07
369.69 K	89.44
370.03 K	90.54
370.62 K	92.52
371.09 K	94.12
371.52 K	95.59
371.94 K	97.02
372.36 K	98.48
372.78 K	100.03
373.16 K	101.39
373.59 K	103
374 K	104.48
374.39 K	105.94
374.82 K	107.57
375.18 K	108.97
375.6 K	110.58
376.1 K	112.55
376.46 K	113.99
376.86 K	115.58
377.21 K	117.02
377.57 K	118.54
377.92 K	119.94
378.29 K	121.58
378.65 K	123.07
378.99 K	124.48
379.33 K	126.01
379.71 K	127.64
380 K	128.92
380.36 K	130.53
380.74 K	132.25
